This passage reports IC50 results from patent US8178668B2, “2-aminopyridine kinase inhibitors” (OSI Pharmaceuticals, LLC, priority 2008, dated 2012).

In general, pIC50 refers to −log10 of the IC50, conventionally taken in molar units. A low value points to a high IC50.

The target in one assay is MET (human) (Homo sapiens, UniProt P08581). The assay can be described thus: MET kinase AlphaScreen assay (Km of ATP). It counts as biochemical. Particulars: ATP at Km; at least duplicate experiments. In outline:
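AlphaScreen detection with PT66 beads (1 h) follows a 60 min room-temperature MET reaction. Substrate is 200 ng/μL biotinylated poly(Glu,Tyr), with ATP set at an enzyme-optimized concentration. Buffer is HEPES pH 7.4 with MgCl2, MnCl2 and 0.334 mM vanadate, compounds at 1% DMSO.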
(Alpha assays give light when donor and acceptor beads are brought close together.)

The target of another assay is RON (human) (Homo sapiens, UniProt Q04912). Description: RON kinase AlphaScreen assay (Km of ATP). Type of assay: biochemical. Particulars: ATP at Km; at least duplicate experiments. The essentials:
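AlphaScreen with PT66 donor/acceptor beads, read after 1 h, detected phosphorylation of biotinylated poly(Glu,Tyr) by human RON. Enzyme-started reactions ran 30 min at room temperature with ATP at Km. Buffer was HEPES pH 7.4 with MgCl2, glycerol, vanadate and 1% DMSO.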

pIC50: −log10 of the molar value. Counter-ions that a name gives are not always drawn.

Sequence of RON (human) (Q04912 25-1400): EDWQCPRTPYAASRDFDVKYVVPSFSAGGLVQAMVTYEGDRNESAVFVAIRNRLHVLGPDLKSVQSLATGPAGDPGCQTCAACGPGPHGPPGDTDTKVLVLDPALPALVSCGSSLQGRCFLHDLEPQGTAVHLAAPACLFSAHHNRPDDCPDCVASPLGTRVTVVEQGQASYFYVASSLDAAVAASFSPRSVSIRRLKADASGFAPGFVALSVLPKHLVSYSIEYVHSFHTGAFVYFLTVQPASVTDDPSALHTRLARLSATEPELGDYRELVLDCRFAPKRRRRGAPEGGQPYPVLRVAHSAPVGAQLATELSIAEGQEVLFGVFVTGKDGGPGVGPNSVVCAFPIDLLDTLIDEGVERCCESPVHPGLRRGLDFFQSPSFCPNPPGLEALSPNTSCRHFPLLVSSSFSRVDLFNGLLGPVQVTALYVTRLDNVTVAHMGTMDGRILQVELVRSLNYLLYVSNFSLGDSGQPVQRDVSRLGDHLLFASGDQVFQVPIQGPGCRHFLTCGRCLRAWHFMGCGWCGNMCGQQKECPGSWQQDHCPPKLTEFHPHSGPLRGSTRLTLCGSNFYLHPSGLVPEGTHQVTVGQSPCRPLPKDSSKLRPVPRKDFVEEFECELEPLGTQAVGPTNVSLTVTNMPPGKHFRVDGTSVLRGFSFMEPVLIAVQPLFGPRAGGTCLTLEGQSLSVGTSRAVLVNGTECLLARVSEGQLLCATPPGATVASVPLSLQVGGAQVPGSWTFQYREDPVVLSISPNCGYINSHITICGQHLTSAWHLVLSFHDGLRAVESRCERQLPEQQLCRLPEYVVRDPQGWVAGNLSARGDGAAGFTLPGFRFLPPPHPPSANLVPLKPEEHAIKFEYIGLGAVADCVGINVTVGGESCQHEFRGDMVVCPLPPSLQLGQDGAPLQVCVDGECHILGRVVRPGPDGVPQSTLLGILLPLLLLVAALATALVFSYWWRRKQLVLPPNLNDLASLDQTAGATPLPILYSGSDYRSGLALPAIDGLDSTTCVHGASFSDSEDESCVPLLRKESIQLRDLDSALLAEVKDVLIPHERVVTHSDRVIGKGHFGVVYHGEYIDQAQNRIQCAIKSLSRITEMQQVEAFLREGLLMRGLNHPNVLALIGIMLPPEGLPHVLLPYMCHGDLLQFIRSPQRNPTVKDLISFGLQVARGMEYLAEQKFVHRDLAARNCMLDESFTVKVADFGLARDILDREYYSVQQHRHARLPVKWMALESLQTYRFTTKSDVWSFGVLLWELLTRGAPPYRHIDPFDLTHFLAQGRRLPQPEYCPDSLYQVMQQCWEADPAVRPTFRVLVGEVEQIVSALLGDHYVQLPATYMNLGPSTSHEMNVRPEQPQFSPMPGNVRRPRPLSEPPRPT
Sequence of MET (human) (P08581 25-1390): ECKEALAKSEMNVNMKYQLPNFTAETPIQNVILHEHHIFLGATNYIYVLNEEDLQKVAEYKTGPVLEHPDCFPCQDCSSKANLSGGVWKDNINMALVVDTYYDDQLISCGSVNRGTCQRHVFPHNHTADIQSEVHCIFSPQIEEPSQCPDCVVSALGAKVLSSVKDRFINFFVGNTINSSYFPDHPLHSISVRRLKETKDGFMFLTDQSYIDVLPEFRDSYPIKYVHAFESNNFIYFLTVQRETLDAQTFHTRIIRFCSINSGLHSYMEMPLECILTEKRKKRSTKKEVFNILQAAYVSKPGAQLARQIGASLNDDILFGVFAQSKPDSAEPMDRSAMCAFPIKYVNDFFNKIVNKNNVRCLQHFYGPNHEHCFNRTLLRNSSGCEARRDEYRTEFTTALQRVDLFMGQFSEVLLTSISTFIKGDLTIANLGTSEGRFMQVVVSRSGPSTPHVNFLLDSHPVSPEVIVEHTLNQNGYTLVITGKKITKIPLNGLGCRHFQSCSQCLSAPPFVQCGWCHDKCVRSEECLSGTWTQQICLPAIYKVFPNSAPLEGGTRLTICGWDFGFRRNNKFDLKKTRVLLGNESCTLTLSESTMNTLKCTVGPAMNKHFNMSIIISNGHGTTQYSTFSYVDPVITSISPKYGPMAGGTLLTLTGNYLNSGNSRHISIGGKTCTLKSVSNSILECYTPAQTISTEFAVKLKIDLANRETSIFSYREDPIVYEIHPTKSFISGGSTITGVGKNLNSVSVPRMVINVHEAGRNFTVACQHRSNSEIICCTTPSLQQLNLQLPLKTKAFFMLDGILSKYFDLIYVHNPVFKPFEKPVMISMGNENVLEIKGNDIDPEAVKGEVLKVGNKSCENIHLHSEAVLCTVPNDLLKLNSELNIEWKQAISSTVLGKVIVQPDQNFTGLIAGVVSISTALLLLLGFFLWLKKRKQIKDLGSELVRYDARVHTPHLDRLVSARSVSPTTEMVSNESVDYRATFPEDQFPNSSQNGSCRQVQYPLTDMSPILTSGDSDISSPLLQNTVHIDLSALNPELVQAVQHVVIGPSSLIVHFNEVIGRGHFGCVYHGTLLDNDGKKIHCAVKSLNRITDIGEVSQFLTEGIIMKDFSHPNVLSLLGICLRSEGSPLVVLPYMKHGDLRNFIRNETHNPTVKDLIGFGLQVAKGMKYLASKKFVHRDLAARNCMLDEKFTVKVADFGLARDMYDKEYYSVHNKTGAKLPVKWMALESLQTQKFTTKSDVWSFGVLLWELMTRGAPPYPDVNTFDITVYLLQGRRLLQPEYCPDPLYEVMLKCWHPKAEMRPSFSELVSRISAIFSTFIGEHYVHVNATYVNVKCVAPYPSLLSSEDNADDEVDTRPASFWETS

Turning to `Nc1ncc(-c2cnn(CCC(=O)N3CCC(O)CC3)c2)cc1-c1nc2ccccc2s1` [Example 290, 3-[4-(6-Amino-5-benzothiazol-2-ylpyridin-3-yl)-pyrazol-1-yl]-1-(4-hydroxypiperidin-1-yl)-propan-1-one], the pIC50 on MET (human) is 6.00 to 7.00; on RON (human), 4.70 to 6.00.
On to `Nc1ncc(-c2cnn(CCC(=O)N3CCOCC3)c2)cc1-c1nc2ccccc2s1` [Example 291, 3-[4-(6-Amino-5-benzothiazol-2-ylpyridin-3-yl)-pyrazol-1-yl]-1-morpholin-4-ylpropan-1-one], for which the pIC50 on MET (human) was 4.70 to 6.00; on RON (human), below 4.70.
Taken in the same sequence, the figures for `COCCNC(=O)CCn1cc(-c2cnc(N)c(-c3nc4ccccc4s3)c2)cn1` [Example 292, 3-[4-(6-Amino-5-benzothiazol-2-ylpyridin-3-yl)-pyrazol-1-yl]-N-(2-methoxyethyl)-propionamide] were 4.70 to 6.00 and below 4.70.
On to `Nc1ncc(-c2cnn(CCC(=O)NCCO)c2)cc1-c1nc2ccccc2s1` [Example 293, 3-[4-(6-Amino-5-benzothiazol-2-ylpyridin-3-yl)-pyrazol-1-yl]-N-(2-hydroxyethyl)-propionamide], for which the pIC50 is 6.00 to 7.00 at MET (human) and 4.70 to 6.00 at RON (human).
With `COCCN(CCOC)C(=O)CCn1cc(-c2cnc(N)c(-c3nc4ccccc4s3)c2)cn1` [Example 294, 3-[4-(6-Amino-5-benzothiazol-2-ylpyridin-3-yl)-pyrazol-1-yl]-N,N-bis-(2-methoxyethyl)-propionamide], the pIC50 on MET (human) and against RON (human) was 4.70 to 6.00 in each case.
Take `CN(C)C(=O)CCn1cc(-c2cnc(N)c(-c3nc4ccccc4s3)c2)cn1` [Example 295, 3-[4-(6-Amino-5-benzothiazol-2-ylpyridin-3-yl)-pyrazol-1-yl]-N,N-dimethylpropionamide]: the pIC50 against MET (human) was 6.00 to 7.00; on RON (human), 4.70 to 6.00.
Take `CNC(=O)CCn1cc(-c2cnc(N)c(-c3nc4ccccc4s3)c2)cn1` [Example 296, 3-[4-(6-Amino-5-benzothiazol-2-ylpyridin-3-yl)-pyrazol-1-yl]-N-methylpropionamide]: the pIC50 against MET (human) and on RON (human) was 4.70 to 6.00 throughout.
On to `NC(=O)CCn1cc(-c2cnc(N)c(-c3nc4ccccc4s3)c2)cn1` [Example 297, 3-[4-(6-Amino-5-benzothiazol-2-ylpyridin-3-yl)-pyrazol-1-yl]-propionamide], for which the results for the pIC50 at MET (human) and against RON (human) were 6.00 to 7.00 and 4.70 to 6.00, respectively.
The like results for `Nc1ncc(-c2cnn(C3CCNCC3)c2)cc1-c1nc2c(s1)CCCC2` [Example 298, 5-(1-Piperidin-4-yl-1H-pyrazol-4-yl)-3-(4,5,6,7-tetrahydro-benzothiazol-2-yl)-pyridin-2-ylamine] were, in that order, at least 7.00 and at least 7.00.
The like results for `Nc1ncc(-c2cnn(C3CCNCC3)c2)cc1-c1nc2c(s1)CCCCC2` [Example 299, 5-(1-Piperidin-4-yl-1H-pyrazol-4-yl)-3-(5,6,7,8-tetrahydro-4H-cycloheptathiazol-2-yl)-pyridin-2-ylamine] were, in that order, 6.00 to 7.00 and 6.00 to 7.00.
As for `Nc1ncc(-c2cnn(C3CCNCC3)c2)cc1N1CCc2ccccc2C1` [Example 300, 3-(3,4-Dihydro-1H-isoquinolin-2-yl)-5-(1-piperidin-4-yl-1H-pyrazol-4-yl)-pyridin-2-ylamine], the values for the pIC50 on MET (human) and at RON (human) were 6.00 to 7.00 and 4.70 to 6.00, respectively.
In the case of `Nc1ncc(-c2cnn(C3CCNCC3)c2)cc1N1CCc2c(F)cccc2C1` [Example 301, 3-(5-Fluoro-3,4-dihydro-1H-isoquinolin-2-yl)-5-(1-piperidin-4-yl-1H-pyrazol-4-yl)-pyridin-2-ylamine], the pIC50 against MET (human) and against RON (human) was 4.70 to 6.00 throughout.
For the compound `Nc1ncc(-c2cnn(C3CCNCC3)c2)cc1N1CCc2c(Cl)cccc2C1` [Example 302, 3-(5-Chloro-3,4-dihydro-1H-isoquinolin-2-yl)-5-(1-piperidin-4-yl-1H-pyrazol-4-yl)-pyridin-2-ylamine], the pIC50 against MET (human) and against RON (human) was 6.00 to 7.00 each time.
For `Nc1ncc(-c2cnn(C3CCNCC3)c2)cc1N1CCc2c(F)ccc(F)c2C1` [Example 303, 3-(5,8-Difluoro-3,4-dihydro-1H-isoquinolin-2-yl)-5-(1-piperidin-4-yl-1H-pyrazol-4-yl)-pyridin-2-ylamine], the pIC50 against MET (human) and against RON (human) was 6.00 to 7.00 each time.
As for `Nc1ncc(-c2cnn(C3CCNCC3)c2)cc1-c1ccc2ccccc2c1` [Example 304, 3-Naphthalen-2-yl-5-(1-piperidin-4-yl-1H-pyrazol-4-yl)-pyridin-2-ylamine trihydrochloride], the pIC50 at MET (human) is 6.00 to 7.00; at RON (human) it was 4.70 to 6.00.
